Columns and labels:
hCB2R = target: T1, hCB2R (Homo sapiens, UniProt P34972); assay: cAMP assay on hCB2R clone 3D8.3 (transfected CHO-K1 cells); type: cell-based; settings: for IC50: cAMP, hCNR2 CHO-K1 3D8.3 clone, read-out: Assay 1 IC50
T1 construct: unnamed tag of the plasmid; expressed in transfected cells
Procedure: (§1) Compounds were evaluated for their CB2R agonist potency in the following assays:
Assay 1—cAMP Assay on hCB2R Clone 3D8.3:
Chinese hamster ovary cells (CHO)-K1 were transfected with hCB2R plasmid using Genejuice (Merck). After 48 h the cells were transferred into flasks in the presence of the antibiotic G418 and expanded (with continuous replenishment of the antibiotic). Two single-cell cloning rounds were then performed, followed by verification of the presence of the tag of the plasmid and confirming the receptor was functional in cAMP studies. For the screening of compounds: Briefly, hCNR2 CHO-K1 (3D8.3 clone) cells were plated in Optimem+1% FCS (30000 cells, 100 ul per well) in half-area 96-well plates (Corning 3885) and placed in an incubator 37° C. 5% CO2 overnight. Next day, the medium was aspirated and replaced with ‘antibody solution’ (22.5 ul) (provided concentrated, diluted 1 in 3 with ‘assay buffer’ provided). The freshly made compounds (at a ×4 final concentration) or solvent alone (1.2% DMSO) were added to the wells and incubated for 30 minutes in a 37° C. incubator 5% CO2. A mixture of: Lysis solution (38%), substrates (Emerald-II™ (10%) and Galacton-Star® (2%)) and enzyme donor-labeled cAMP (50%) was added to the wells and incubated in the dark for one hour at room temperature. 30 μl of detection reagent (enzyme acceptor, provided) was then added to the wells and incubated in the dark for 3 hours at room temperature. The luminescence was then read with a Perkin-Elmer luminometer.

hCNR2 (CB2R) = target: T2, hCNR2 (CB2R) (Homo sapiens, UniProt P34972); assay: DiscoveRx cAMP Hunter Express GPCR assay (hCNR2 CHO-K1 cells); type: cell-based; settings: for IC50: cAMP Hunter eXpress, hCNR2 CHO-K1 cells, read-out: Assay 2 IC50
T2 construct: host or cells: CHO-K1 (purchased recombinant cell line)
Procedure: as §1
Assay 2—DiscoveRx cAMP Hunter Express GPCR Assay
The cAMP Hunter eXpress GPCR assay kit and cells used are from DiscoveRx Corporation (95-0040E2) using the manufacturer's protocol without the optional IBMX step. […] Briefly, hCNR2 CHO-K1 cells were plated in the provided medium (50 ul per well) in half-area 96-well plates (Corning 3885) and placed in an incubator 37° C. 5% CO2 overnight. Next day, the medium was aspirated and replaced with ‘antibody solution’ (22.5 ul) (provided concentrated, diluted 1 in 3 with ‘assay buffer’ provided). The freshly made compounds (at a ×4 final concentration) or solvent alone (1.2% DMSO) were added to the wells and incubated for 30 minutes in a 37° C. incubator 5% CO2. A mixture of lysis solution and two substrates (provided with the DiscoveRx kit) was added to the wells and incubated in the dark for one hour at room temperature. A detection reagent (provided) was then added to the wells and incubated in the dark for 3 hours at room temperature. The luminescence was then read with a Perkin-Elmer luminometer.

T2 sequence (P34972 whole entry): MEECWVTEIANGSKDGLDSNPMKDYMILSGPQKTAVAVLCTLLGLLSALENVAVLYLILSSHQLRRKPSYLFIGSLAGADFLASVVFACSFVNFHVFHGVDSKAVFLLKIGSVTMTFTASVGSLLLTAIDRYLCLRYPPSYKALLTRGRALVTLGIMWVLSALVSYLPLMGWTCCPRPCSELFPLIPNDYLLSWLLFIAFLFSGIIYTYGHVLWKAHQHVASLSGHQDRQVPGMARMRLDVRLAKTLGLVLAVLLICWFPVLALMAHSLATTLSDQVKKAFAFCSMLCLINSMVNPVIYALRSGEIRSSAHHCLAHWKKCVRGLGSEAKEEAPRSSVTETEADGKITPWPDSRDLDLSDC
T1 sequence (P34972 whole entry): as above

Compound | IC50 (hCB2R) | IC50 (hCNR2 (CB2R)) | Assay 1 activity at 3 μM (hCB2R; at 3 μM) | Assay 2 decrease at 1 and 3 μM (hCNR2 (CB2R); at 1 and 3 μM)
N#Cc1ccccc1CSc1nnc2c3ccccc3n(C(=O)c3cccc(C(F)(F)F)c3)c2n1 [Example 19] | 0.057 µM | 0.027 µM | – | –
O=[N+]([O-])c1ccccc1CSc1nnc2c(n1)[nH]c1cccc(Br)c12 [Example 9, 9-Bromo-3-((2′-nitrobenzyl)thio)-5H-[1,2,4]triazino[5,6-b]indole] | 0.28 µM | 0.037 µM | – | –
COC(=O)CCC(=O)n1c2ccccc2c2nnc(SCc3ccccc3C#N)nc21 [Example 26, methyl 4″-(3-((2′-cyanobenzyl)thio)-5H-[1,2,4]triazino[5,6-b]indol-5-yl)-4″-oxobutanoate] | 0.043 µM | 0.048 µM | – | –
N#Cc1ccccc1CSc1nnc2c3ccccc3n(C(=O)c3ccc(OC(F)(F)F)cc3)c2n1 [Example 21, 2′-(((5-(4″-(Trifluoromethoxy)benzoyl)-5H-[1,2,4]triazino[5,6-b]indol-3-yl)thio)methyl)benzonitrile] | 0.111 µM | 0.073 µM | – | –
N#Cc1ccccc1CSc1nnc2c3ccccc3n(Cc3ccccc3)c2n1 [Example 3, 2′-(((5-Benzyl-5H-[1,2,4]triazino[5,6-b]indol-3-yl)thio)methyl)benzonitrile] | 0.096 µM | 0.214 µM | – | –
N#Cc1ccccc1CSc1nnc2c3ccccc3n(C(=O)c3ccco3)c2n1 [Example 23, 2′-(((5-(Furan-2″-carbonyl)-5H-[1,2,4]triazino[5,6-b]indol-3-yl)thio)methyl)benzonitrile] | 0.031 µM | 0.046 µM | – | –
O=C(c1ccccc1)n1c2ccccc2c2nnc(SCc3ccccc3[N+](=O)[O-])nc21 [Example 7, (3-((2′-Nitrobenzyl)thio)-5H-[1,2,4]triazino[5,6-b]indol-5-yl)(phenyl)methanone] | 0.84 µM | 0.075 µM | – | –
O=[N+]([O-])c1cccc(F)c1CSc1nnc2c(n1)[nH]c1ccccc12 [Example 12, 3-((2′-Fluoro-6′-nitrobenzyl)thio)-5H-[1,2,4]triazino[5,6-b]indole] | 1.9 µM | 0.539 µM | – | –
N#Cc1ccccc1CSc1nnc2c(n1)[nH]c1ccccc12 [Example 2, 3-((2′-Cyanobenzyl)thio)-5H-[1,2,4]triazino[5,6-b]indole] | 0.16 µM | 0.112 µM | – | –
O=[N+]([O-])c1ccccc1CSc1nnc2c(n1)[nH]c1ccccc12 [Example 1, 3-((2′-nitrobenzyl)thio)-5H-[1,2,4]triazino[5,6-b]indole] | 0.129 µM | 0.033 µM | – | –
CN(C)c1ccc(C(=O)n2c3ccccc3c3nnc(SCc4ccccc4C#N)nc32)cc1 [Example 16] | – | – | ~40% activity at 3 μM | 20% decrease at 1 and 3 μM
O=[N+]([O-])c1ccccc1CSc1nnc2c3ccccc3n(Cc3ccccc3F)c2n1 [Example 13] | 0.201 µM | 0.201 µM | – | –
O=[N+]([O-])c1ccccc1CSc1nnc2c3ccccc3n(Cc3ccc(Cl)cc3)c2n1 [Example 6, 5-(4″-Chlorobenzyl)-3-((2′-nitrobenzyl)thio)-5H-[1,2,4]triazino[5,6-b]indole] | 0.631 µM | 0.109 µM | – | –
